Measurements as given in patent US20170087205A1, “Replacement Therapy for Natriuretic Peptide Deficiencies” (priority 2014, published 2017).
Positions of bridges follow the written chain, without caps; N, C: chain ends. Non-standard residues stand in square brackets, D forms with d. Residues, ends and D or L forms follow the SMILES beside them. *: point of attachment. X1 = N=C(N)NCCC[C@H]1C(=O)N[C@@H](C(N)=O)CN1*; dNle = CCCC[C@@H](N)C(=O)O; Heptanoyl = CCCCCCC(=O)*

Experiments:
human NPRA = target: T1, human NPRA (Homo sapiens, UniProt P16066); type: cell-based; details: human NPRA in HEK cells; mean ± SD
T1 sequence (P16066 33-1061): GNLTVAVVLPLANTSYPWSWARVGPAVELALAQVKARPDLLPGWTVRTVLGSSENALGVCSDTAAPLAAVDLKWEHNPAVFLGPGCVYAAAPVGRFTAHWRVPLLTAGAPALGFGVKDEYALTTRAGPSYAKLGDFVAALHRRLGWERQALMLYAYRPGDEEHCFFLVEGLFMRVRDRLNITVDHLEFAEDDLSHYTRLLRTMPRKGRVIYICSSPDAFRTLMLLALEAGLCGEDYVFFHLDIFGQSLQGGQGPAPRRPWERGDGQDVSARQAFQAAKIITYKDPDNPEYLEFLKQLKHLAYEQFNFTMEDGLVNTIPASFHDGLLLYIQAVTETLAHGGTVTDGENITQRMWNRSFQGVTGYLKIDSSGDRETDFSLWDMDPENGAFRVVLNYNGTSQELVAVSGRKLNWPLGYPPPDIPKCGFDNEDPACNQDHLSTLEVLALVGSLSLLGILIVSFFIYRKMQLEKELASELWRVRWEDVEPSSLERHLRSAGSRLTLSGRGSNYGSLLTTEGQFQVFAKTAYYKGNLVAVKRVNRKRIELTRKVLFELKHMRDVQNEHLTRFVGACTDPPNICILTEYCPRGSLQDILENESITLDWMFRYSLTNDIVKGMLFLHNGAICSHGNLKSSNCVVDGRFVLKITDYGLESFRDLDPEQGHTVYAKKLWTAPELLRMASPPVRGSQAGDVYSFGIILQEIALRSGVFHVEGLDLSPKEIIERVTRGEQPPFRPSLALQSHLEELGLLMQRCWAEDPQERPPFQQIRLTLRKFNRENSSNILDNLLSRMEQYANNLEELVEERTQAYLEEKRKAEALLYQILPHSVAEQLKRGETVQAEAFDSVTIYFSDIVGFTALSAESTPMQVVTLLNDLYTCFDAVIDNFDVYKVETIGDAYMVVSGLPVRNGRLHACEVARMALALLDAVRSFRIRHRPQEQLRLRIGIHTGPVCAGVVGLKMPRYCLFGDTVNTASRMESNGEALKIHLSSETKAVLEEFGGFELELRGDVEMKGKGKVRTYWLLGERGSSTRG
Description: A cDNA clone that encodes for human natriuratic peptide receptor A (NPRA) was purchased from Bio S&T Inc. (Montreal, Quebec). The cDNA clone was inserted into the mammalian expression vector pcDNA3.1 (Invitrogen) and transfected into HEK-293 cells. Stable clones were selected by culture of cells in the presence of G418 sulfate. […] HEK-hNPRA cells were maintained in culture at 37° C. in 5% CO2 in Dulbecco's Modified Eagle's Medium (DMEM) supplemented with 10% FBS, G418 sulfate (300 μg/mL) sodium glutamate (0.29 mg/mL), penicillin (100 units/mL) and streptromycin (100 ug/mL).
Functional evaluation of natriuretic peptide mimetics was performed by measuring the accumulation of intracellular cGMP in HEK-293 cells that express recombinant hNPR-A. HEK-NPRA cells were harvested by washing and centrifugation in Cell Dissociation Buffer (Gibco, Life Technologies). Pelleted cells were resuspended in Hank's Balanced Salt Solution (HBSS) containing 10 mM Hepes (pH 7.4), 5 mM MgCl2, 200 mM L-glutamine, 1 mM 1,10-phenanthroline and BSA (0.5 mg/mL). Following centrifugation, cells were resuspended in the above buffer supplemented with 0.5 mM 3-isobutyl-1-methylxanthine (IBMX). […] Accumulation of cGMP was measured using the cGMP Flashplate RIA (Perkin-Elmer). Data analysis and EC50 values were determined by using nonlinear regression analysis with GraphPad Prism® software.

[1] = Safety study in healthy volunteers: pharmacodynamic parameters (plasma cGMP); type: in vivo, human; details: mean ± SD
Excerpt: Cyclic guanosine monophosphate (cGMP) in the plasma samples was extracted using a protein precipitation method. cGMP and internal standard, cyclic adenosine monophosphate (cAMP), were separated using a HPLC technique and detected by an Applied Biosystems API-4000 liquid chromatography-tandem mass spectrometer (LC-MS/MS) with turbo-ion spray ionization (electrospray) in positive ion mode. Positive ions were detected in multiple reaction monitoring (MRM) mode with Precursor→Product ion pairs of 346.3→152.1 for cGMP, and 330.0→136.3 for cAMP.
In a safety study, the mimetic of formula IV was administered to healthy volunteers. Doses of 0.1, 0.3, 0.7 and 1.0 μg/kg of the mimetic of formula IV were administered.
Kel is the apparent terminal elimination rate constant, calculated by linear regression of the terminal linear portion of the log concentration versus the time curve. The plasma cGMP concentrations returned to baseline levels by approximately 8 hours after dosing following 0.7 μg/kg and 1.0 μg/kg of the mimetic of formula IV.

human NEP (hNEP) = human NEP (hNEP) (Homo sapiens, UniProt P08473); assay: Metabolism by human neutral endopeptidase (hNEP); type: in vitro ADME; details: two hours, 37° C., substrate concentration 50 μM
Description: Pharmacol. 191:341-366 (2009)). A comparison was made between the sensitivity of the mimetic of formula IV and ANP to metabolism by human NEP (hNEP) (substrate concentration 50 μM). After two hours exposure to hNEP solution at 37° C., there was minimal degradation of the mimetic of formula IV (92% remaining; n=5). In contrast, under these conditions ANP was about 90% degraded after 60 minutes and 100% degraded after two hours (n=4). […] Results are shown in FIG. 1; results in FIG. 1 are expressed as the percent of the starting material, and are either the mean of 1-5 experiments or, where error bars are shown, are the mean±standard deviation.

[2] = in vivo; cited from earlier work

Chain of human NEP (hNEP) (P08473 whole entry): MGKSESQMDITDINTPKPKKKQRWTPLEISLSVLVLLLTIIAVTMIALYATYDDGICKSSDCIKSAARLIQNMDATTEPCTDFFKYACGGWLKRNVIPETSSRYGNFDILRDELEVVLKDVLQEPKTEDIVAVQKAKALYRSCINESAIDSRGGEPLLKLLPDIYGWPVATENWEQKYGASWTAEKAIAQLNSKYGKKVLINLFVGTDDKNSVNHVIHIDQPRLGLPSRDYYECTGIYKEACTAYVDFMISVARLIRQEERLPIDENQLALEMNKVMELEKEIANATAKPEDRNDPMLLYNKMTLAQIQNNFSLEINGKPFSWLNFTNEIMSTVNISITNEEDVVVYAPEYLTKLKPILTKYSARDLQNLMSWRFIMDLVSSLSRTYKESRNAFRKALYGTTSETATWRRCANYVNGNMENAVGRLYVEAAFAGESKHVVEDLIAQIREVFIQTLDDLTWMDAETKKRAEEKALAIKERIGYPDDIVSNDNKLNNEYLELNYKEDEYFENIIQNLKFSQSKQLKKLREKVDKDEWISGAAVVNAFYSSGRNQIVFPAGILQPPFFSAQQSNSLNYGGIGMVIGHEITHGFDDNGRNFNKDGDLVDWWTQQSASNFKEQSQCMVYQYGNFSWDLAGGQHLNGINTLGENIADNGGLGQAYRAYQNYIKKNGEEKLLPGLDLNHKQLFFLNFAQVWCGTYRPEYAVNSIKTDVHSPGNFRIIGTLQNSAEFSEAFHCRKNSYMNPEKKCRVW

| Structure (SMILES) | Function (cGMP) Emax (% of ANP response) (human NPRA) | t½ ([1]; 0.7 μg/kg) | t½ ([1]; 1.0 μg/kg) | percent remaining after exposure to hNEP (human NEP (hNEP)) | reported human plasma half-life [2] |
| --- | --- | --- | --- | --- | --- |
| CCCCCCC(=O)N[C@H]1CSSC[C@@H](C(=O)N[C@@H](Cc2ccc(O)cc2)C(=O)N2C[C@H](C(N)=O)NC(=O)[C@@H]2CCCNC(=N)N)NC(=O)[C@H](CO)NC(=O)[C@H]([C@@H](C)CC)NC(=O)[C@H](CCCNC(=N)N)NC(=O)[C@H](CC(=O)O)NC(=O)[C@@H](CCCC)NC(=O)[C@H](CCCNC(=N)N)NC(=O)CNC(=O)[C@@H](C)NC(=O)[C@H](Cc2ccccc2)NC(=O)[C@H](Cc2c[nH]cn2)NC1=O [mimetic of formula IV] (Heptanoyl-CHF[dA]GR[dNle]DRISCY-X1; disulfide 1-12) | 94 ± 8 % of ANP response | 3.03 ± 0.345 h | 2.98 ± 3.61 h |  |  |
| CC[C@H](C)[C@@H]1NC(=O)[C@H](CCCNC(=N)N)NC(=O)[C@H](CC(=O)O)NC(=O)[C@H](CC(C)C)NC(=O)[C@H](CCCCN)NC(=O)[C@H](CC(C)C)NC(=O)CNC(=O)[C@H](Cc2ccccc2)NC(=O)[C@@H](NC(=O)CNC(=O)[C@H](CCCCN)NC(=O)[C@H](CO)NC(=O)[C@H](CC(C)C)NC(=O)CN)CSSC[C@@H](C(=O)O)NC(=O)CNC(=O)[C@H](CC(C)C)NC(=O)CNC(=O)[C@H](CO)NC(=O)[C@H](CCSC)NC(=O)[C@H](CO)NC(=O)CNC1=O [hCNP] |  |  |  | 1% | about 2 minutes |
